Values after ≈ are worked out from the molar mass of the structure shown.
Experiments:
NIH/3T3 cells = assay: Cytotoxicity colorimetric assay; type: cell-based; settings: Mus musculus, NIH3T3, 1 h, one hour incubation in serum-free media
Protocol: Cytotoxicity of the compounds are evaluated in a colorimetric assay using a transformed human liver cell line (HepG2, HB-8065) and an embryonic mouse cell line (NIH/3T3 cells, CRL-1658). This assay measures the bioreduction of a novel tetrazolium compound to a soluble formazan product by viable cells. HepG2 cells are seeded in 96 well plates at 2×10^4 cells/well in MEM medium with 10% fetal bovine serum (FBS) 24 hours prior to use. NIH/3T3 cells are seeded in 96 well plates at 2×10^4 cells/well in DMEM medium with 10% bovine calf serum (BCS) 24 hours prior to use. Cell monolayers are rinsed in serum-free media and incubated for one hour with a Compound in serum-free media. After incubation, the media is replaced with serum supplemented media and live cells are measured using the Cell Titer 96 Aqueous […] Assay kit (Promega, Madison, Wis.). EC50 values are determined using a four parameter logistic equation: Y=Bottom+(Top−Bottom)/(1+10^((Log EC50−X)*HillSlope)). […] Data is expressed as EC50 in μg/ml. Cytotoxicity is evaluated in a colorimetric assay using a transformed human liver cell line (HepG2, HB-8065) and an embryonic mouse cell line (NIH/3T3 cells, CRL-1658). This assay measures the bioreduction of a novel tetrazolium compound to a soluble formazan product by viable cells. HepG2 cells are seeded in 96 well plates at 3×10^4 cells/well in MEM medium with 10% fetal bovine serum (FBS) 24 hours prior to use. NIH/3T3 cells are seeded in 96 well plates at 2×10^4 cells/well in DMEM medium with 10% bovine calf serum (BCS) 24 hours prior to use. Cell monolayers are rinsed in serum-free media and incubated for one hour with test agent in serum-free media. After incubation, the media is replaced with serum supplemented media and live cells are measured using the Cell Titer 96 Aqueous […] Assay kit (Promega, Madison, Wis.). EC50 values are determined using a four parameter logistic equation: Y=Bottom+(Top−Bottom)/(1+10^((Log EC50−X)*HillSlope)).

P. aeruginosa (10145) = assay: MIC assay (Table 1); type: cell-based; settings: Pseudomonas aeruginosa, isolate 10145

With `NCCCOc1cc(-c2ccc3ccc(-c4cc(OCCCN)c(OCCCN)c(OCCCN)c4)cc3c2)cc(OCCCN)c1OCCCN` [Compound 116] the EC50 (NIH/3T3 cells) was 165 µg/mL (≈ 230 µM) and the MIC50 (P. aeruginosa (10145)) was 25 µg/mL (≈ 34.8 µM).
